How the values were obtained:
Thymidylate synthase = molecular target: T1, Thymidylate synthase (Lactobacillus casei, UniProt P00469); test: Compound was tested for its ability to inhibit thymidylate synthetase isolated from MTX-resistant Lactobacillus casei; set-up: species or system Lacticaseibacillus casei
T1 sequence (P00469 whole entry): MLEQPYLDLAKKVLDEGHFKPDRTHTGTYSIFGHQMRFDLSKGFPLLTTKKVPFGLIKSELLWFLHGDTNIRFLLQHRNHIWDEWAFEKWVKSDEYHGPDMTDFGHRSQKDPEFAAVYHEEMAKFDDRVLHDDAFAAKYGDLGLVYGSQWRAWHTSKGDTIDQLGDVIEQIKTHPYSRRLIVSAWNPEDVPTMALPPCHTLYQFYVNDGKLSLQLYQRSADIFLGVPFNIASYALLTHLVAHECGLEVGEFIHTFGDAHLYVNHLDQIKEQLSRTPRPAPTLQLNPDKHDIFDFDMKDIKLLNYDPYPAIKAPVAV

[1] = molecular target: T2, Dihydrofolate reductase (Mus musculus) (UniProt P00375); settings: L1210
T2 sequence (whole entry): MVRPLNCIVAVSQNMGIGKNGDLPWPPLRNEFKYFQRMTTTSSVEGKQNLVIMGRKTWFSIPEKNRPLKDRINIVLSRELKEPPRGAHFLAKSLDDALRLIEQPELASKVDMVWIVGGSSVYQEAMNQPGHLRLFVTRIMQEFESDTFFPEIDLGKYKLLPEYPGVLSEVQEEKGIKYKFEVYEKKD
Description: Compound was tested for its ability to inhibit dihydrofolate reductase purified from murine L1210 cells, activity expressed as IC50/[E]

L1210 = test: Compound was tested for its ability to inhibit L1210 cell growth; type: functional, cell-based; settings: Mus musculus
Dihydrofolate reductase = molecular target: T3, Dihydrofolate reductase (Mus musculus, UniProt P00375); test: biochemical
T3 sequence (P00375 whole entry): T2 sequence (whole entry)
Description: Compound was tested for its ability to inhibit dihydrofolate reductase purified from murine L1210 cells

Row | Structure (SMILES) | Ki (Thymidylate synthase) [nM] | IC50/[E] [1] | IC50 (L1210) [nM] | IC50 (Dihydrofolate reductase) [nM]
1 | CN(Cc1cnc2nc(N)nc(N)c2n1)c1ccc(C(=O)NCCCC(=O)NCCCC(=O)NCCCC(=O)NCCCC(=O)NC(CCC(=O)O)C(=O)O)cc1 (stereo unspecified) | 189 | 7.7 | > 100000 | 540
2 | CN(Cc1cnc2nc(N)nc(N)c2n1)c1ccc(C(=O)N[C@@H](CCC(=O)O)C(=O)O)cc1 [METHOTREXATE] | – | – | 20 | –
3 | CN(Cc1cnc2nc(N)nc(N)c2n1)c1ccc(C(=O)NCCCC(=O)NCCCC(=O)NC(CCC(=O)O)C(=O)O)cc1 (stereo unspecified) | 205 | 1.3 | 5600 | 90
4 | CN(Cc1cnc2nc(N)nc(N)c2n1)c1ccc(C(=O)NCCCC(=O)NCCCC(=O)NCCCC(=O)NC(CCC(=O)O)C(=O)O)cc1 (stereo unspecified) | 130 | 4.4 | 29000 | 310
5 | CN(Cc1cnc2nc(N)nc(N)c2n1)c1ccc(C(=O)NCCCC(=O)NC(CCC(=O)O)C(=O)O)cc1 (stereo unspecified) | 336 | 0.82 | 530 | 82
6 | CN(Cc1cnc2nc(N)nc(N)c2n1)c1ccc(C(=O)NCCCC(=O)NCCCC(=O)NCCCC(=O)NCCCC(=O)NCCCC(=O)NC(CCC(=O)O)C(=O)O)cc1 (stereo unspecified) | 172 | 12 | > 100000 | 840
